The test system of this experiment is RSV Long strain. Description: Viral cytopathic effect (CPE) assay, anti-RSV activity. To be noted: human respiratory syncytial virus, 144 h, RSV Long strain (ATCC); cell viability after 6 days, Cell Counting kit-8. Type of experiment: cell-based, Respiratory Syncytial Virus. The method, boiled down: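 Cells (6×10^3/well, DMEM with 10% FBS) were infected next day with RSV Long strain, at a dose giving approximately 80–90% CPE, alongside serial half-log compound dilutions. Viability was read after 6 days by CCK-8 absorbance at 450 nm (reference 630 nm), and EC50 was derived from it.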
`Cc1ccc2nc(N3CCS(=O)(=O)c4ccccc4C3)cc(NCCO)c2c1F` [Example 9-22, 2-{[2-(1,1-Dioxido-2,3-dihydro-1,4-benzothiazepin-4(5H)-yl)-5-fluoro-6-methylquinolin-4-yl]amino}ethanol] had an EC50 of 0.872 µM.
To `Cc1ccc2nc(N3CCS(=O)(=O)c4ccccc4C3)cc(N3CC4CC3C4N)c2c1` (centres unmarked) [Example 19-8, 2-[2-(1,1-Dioxido-2,3-dihydro-1,4-benzothiazepin-4(5H)-yl)-6-methylquinolin-4-yl]-2-azabicyclo[2.1.1]hexan-5-amine] belongs 2.75 µM; to `NCCNc1cc(N2CCS(=O)(=O)c3ccccc3C2)nc2ccc(CO)cc12` [Example 10, {4-[(2-Aminoethyl)amino]-2-(1,1-dioxido-2,3-dihydro-1,4-benzothiazepin-4(5H)-yl)quinolin-6-yl}methanol], 0.003 µM.
Next, `Cc1ccc2nc(N3CCS(=O)(=O)c4ccccc4C3)cc(NC3CCCC(N)C3)c2c1` (centres unmarked) [Example 3-16, N-[2-(1,1-Dioxido-2,3-dihydro-1,4-benzothiazepin-4(5H)-yl)-6-methylquinolin-4-yl]-cyclohexane-1,3-diamine]: 0.075 µM; `Cc1ccc2nc(N3CCS(=O)(=O)c4ccccc4C3)cc(NCC(O)CC(=O)O)c2c1` (centres unmarked) [Example 11-3, 4-{[2-(1,1-Dioxido-2,3-dihydro-1,4-benzothiazepin-4(5H)-yl)-6-methylquinolin-4-yl]amino}-3-hydroxybutanoic acid]: 0.922 µM.
To `Cc1ccc2nc(N3CCC(F)(F)c4ccccc4C3)cc(NCC(C)N)c2c1` (centres unmarked) [Example 110-8, N^˜1^˜-[2-(5,5-Difluoro-1,3,4,5-tetrahydro-2H-2-benzazepin-2-yl)-6-methylquinolin-4-yl]propane-1,2-diamine] belongs 0.081 µM; to `Cc1ccc2nc(N3CCS(=O)(=O)c4ccccc4C3)nc(NCC3(CN)COC3)c2c1` [Example 56-1, N-{[3-(Aminomethyl)oxetan-3-yl]methyl}-2-(1,1-dioxido-2,3-dihydro-1,4-benzothiazepin-4(5H)-yl)-6-methylquinazolin-4-amine], 0.002 µM.
`O=S1(=O)CCN(c2cc(NCC(O)CO)c3cc(Cl)ccc3n2)Cc2ccccc21` (centres unmarked) [Example 32-2, 3-{[6-Chloro-2-(1,1-dioxido-2,3-dihydro-1,4-benzothiazepin-4(5H)-yl)quinolin-4-yl]amino}propane-1,2-diol] displayed an EC50 of 2.45 µM.
Next, `Cc1ccc2nc(N3CCC(F)(F)c4ccccc4C3)cc(N(C)CCN)c2c1` [Example 111-3, N-[2-(5,5-Difluoro-1,3,4,5-tetrahydro-2H-2-benzazepin-2-yl)-6-methylquinolin-4-yl]-N-methylethane-1,2-diamine]: 0.0768 µM; `NCCCNc1cc(N2CCS(=O)(=O)c3ccccc3C2)nc2ccc(Br)cc12` [Example 9-34, N-[6-Bromo-2-(1,1-dioxido-2,3-dihydro-1,4-benzothiazepin-4(5H)-yl)quinolin-4-yl]propane-1,3-diamine]: 0.024 µM.
To `Cc1ccc2nc(N3CCC(C)(O)c4ccccc4C3)nc(NCC3(N)COC3)c2c1` (centres unmarked) [Example 115, 2-(4-{[(3-Aminooxetan-3-yl)methyl]amino}-6-methylquinazolin-2-yl)-5-methyl-2,3,4,5-tetrahydro-1H-2-benzazepin-5-ol] belongs 0.01 µM; to `NC1(CNc2nc(N3CC[S+]([O-])c4ccccc4C3)nc3ccc(Cl)cc23)COC1` (centres unmarked) [Example 57-5, N-[(3-Aminooxetan-3-yl)methyl]-6-chloro-2-(1-oxido-2,3-dihydro-1,4-benzothiazepin-4(5H)-yl)quinazolin-4-amine], 0.027 µM.
Compound `NCCNc1cc(N2CCS(=O)(=O)c3ccccc3C2)nc2ccc([N+](=O)[O-])cc12` [Example 9-20, N-[2-(1,1-Dioxido-2,3-dihydro-1,4-benzothiazepin-4(5H)-yl)-6-nitroquinolin-4-yl]ethane-1,2-diamine] returned an EC50 of 0.76 µM.
To `Cc1ccc2nc(N3CCC(F)(F)c4ccccc4C3)nc(NCC3(N)CS(=O)(=O)C3)c2c1` [Example 116-2, N-[(3-Amino-1,1-dioxidothietan-3-yl)methyl]-2-(5,5-difluoro-1,3,4,5-tetrahydro-2H-2-benzazepin-2-yl)-6-methylquinazolin-4-amine] belongs 0.309 µM.
`Cc1ccc2c(NCCCN)cc(N3CCS(=O)(=O)c4ccccc4C3)nc2c1` [Example 17-7, N-[2-(1,1-Dioxido-2,3-dihydro-1,4-benzothiazepin-4(5H)-yl)-7-methylquinolin-4-yl]propane-1,3-diamine] registered an EC50 of 0.642 µM.
`COc1ccc2c(c1)S(=O)(=O)CCN(c1cc(NCC3(N)COC3)c3ccccc3n1)C2` [Example 2-9, N-[(3-Aminooxetan-3-yl)methyl]-2-(8-methoxy-1,1-dioxido-2,3-dihydro-1,4-benzothiazepin-4(5H)-yl)quinolin-4-amine]: the response was half-maximal at 0.007 µM (EC50).
Next, `NC1(CNc2cc(N3CCSc4ccccc4C3)nc3ccc(Cl)cc23)COC1` [Example 4-1, N-[(3-Aminooxetan-3-yl)methyl]-6-chloro-2-(2,3-dihydro-1,4-benzothiazepin-4(5H)-yl)quinolin-4-amine]: 0.269 µM.
Next, `Cc1ccc2nc(N3CCS(=O)(=O)c4ccccc4C3)cc(N(CCO)CCO)c2c1` [Example 11-2, 2,2′-{[2-(1,1-Dioxido-2,3-dihydro-1,4-benzothiazepin-4(5H)-yl)-6-methylquinolin-4-yl]imino}diethanol]: 7.02 µM.
`Cc1ccc2nc(N3CCS(=O)(=O)c4ccccc4C3)cc(NC(=O)c3cnccn3)c2c1` [Example 47-8, N-[2-(1,1-Dioxido-2,3-dihydro-1,4-benzothiazepin-4(5H)-yl)-6-methylquinolin-4-yl]pyrazine-2-carboxamide] showed an EC50 of 0.432 µM.
Next, `Cc1ccc2nc(N3CCS(=O)(=O)c4ccccc4C3)cc(N3C[C@H](O)C(C)(C)C3)c2c1` [Example 3-17, (R)-1-[2-(1,1-Dioxido-2,3-dihydro-1,4-benzothiazepin-4(5H)-yl)-6-methylquinolin-4-yl]-4,4-dimethyl-pyrrolidin-3-ol]: 5.05 µM; `Cc1ccc2nc(N3CCS(=O)(=O)c4ccccc4C3)cc(NCCSCCN)c2c1` [Example 8-7, N-{2-[(2-Aminoethyl)sulfanyl]ethyl}-2-(1,1-dioxido-2,3-dihydro-1,4-benzothiazepin-4(5H)-yl)-6-methylquinolin-4-amine]: 0.322 µM.
In the case of `Cc1ccc2nc(N3CCS(=O)(=O)c4ccccc4C3)cc(N[C@H]3CC[C@H](O)CC3)c2c1` [Example 8-1, trans-4-{[2-(1,1-Dioxido-2,3-dihydro-1,4-benzothiazepin-4(5H)-yl)-6-methylquinolin-4-yl]amino}cyclohexanol], the midpoint of the response, the EC50, lay at 5.51 µM.
Next, `Cc1ccc2nc(N3CCS(=O)(=O)c4ccccc4C3C)cc(NCC(O)CO)c2c1` (centres unmarked) [Example 32-5, 3-{[6-Methyl-2-(5-methyl-1,1-dioxido-2,3-dihydro-1,4-benzothiazepin-4(5H)-yl)quinolin-4-yl]amino}propane-1,2-diol]: 2.58 µM; `CCC(N)C(=O)Nc1cc(N2CCS(=O)(=O)c3ccccc3C2)nc2ccc(C)cc12` (centres unmarked) [Example 40-4, 2-Amino-N-[2-(1,1-dioxido-2,3-dihydro-1,4-benzothiazepin-4(5H)-yl)-6-methylquinolin-4-yl]butanamide]: 2.65 µM; `Cc1ccc2nc(N3CCS(=O)(=O)c4ccccc4C3)cc(N[C@H]3CC[C@@H](N)CC3)c2c1` [Example 3-18, cis-N-[2-(1,1-Dioxido-2,3-dihydro-1,4-benzothiazepin-4(5H)-yl)-6-methylquinolin-4-yl]-cyclohexane-1,4-diamine]: 0.024 µM.
Take `Cc1cc2c(NCC3(N)COC3)cc(N3CCS(=O)(=O)c4ccccc4C3)nc2cc1F` [Example 3-24, N-[(3-Aminooxetan-3-yl)methyl]-2-(1,1-dioxido-2,3-dihydro-1,4-benzothiazepin-4(5H)-yl)-7-fluoro-6-methylquinolin-4-amine]: the concentration for a half-maximal effect (EC50) is 0.021 µM.
For `Cc1ccc2nc(N3CCS(=O)(=O)c4ccccc4C3)cc(N[C@@H]3CCCC[C@H]3N)c2c1` (relative stereo) [Example 3-15, trans-N-[2-(1,1-Dioxido-2,3-dihydro-1,4-benzothiazepin-4(5H)-yl)-6-methylquinolin-4-yl]cyclohexane-1,2-diamine], the EC50 is 0.482 µM.
Next, `NCCNc1cc(N2CCCc3ccccc3C2)nc2ccc(C(F)(F)F)cc12` [Example 118-19, N-[2-(1,3,4,5-Tetrahydro-2H-2-benzazepin-2-yl)-6-(trifluoromethyl)quinolin-4-yl]ethane-1,2-diamine]: 1.24 µM.
Next, `NCCCNc1cc(N2CCS(=O)(=O)c3ccccc3C2)nc2ccc(OC(F)(F)F)cc12` [Example 17-1, N-[2-(1,1-Dioxido-2,3-dihydro-1,4-benzothiazepin-4(5H)-yl)-6-(trifluoromethoxy)quinolin-4-yl]propane-1,3-diamine]: 5.54 µM.
`Cc1ccc2nc(N3CCS(=N)(=O)c4ccccc4C3)cc(N3CC(N)C(O)C3)c2c1` (stereo not drawn) [Example 78-1, trans-4-Amino-1-[2-(1-imino-1-oxido-1,2,3,5-tetrahydro-4H-1lambda˜4˜,4-benzothiazepin-4-yl)-6-methylquinolin-4-yl]pyrrolidin-3-ol] yielded a concentration for a half-maximal effect (EC50) of 0.016 µM.
Next, `Cc1ccc2nc(N3CC[S+]([O-])c4ccccc4C3)nc(NCC3(NCc4ccccc4)COC3)c2c1` (centres unmarked) [Example 55-2, N-{[3-(Benzylamino)oxetan-3-yl]methyl}-6-methyl-2-(1-oxido-2,3-dihydro-1,4-benzothiazepin-4(5H)-yl)quinazolin-4-amine]: 0.202 µM.
For the compound `Cc1ccc2nc(N3CCS(=O)(=O)c4ccccc4C3)cc(Nc3cc[nH]n3)c2c1` [Example 47-3, 2-(1,1-Dioxido-2,3-dihydro-1,4-benzothiazepin-4(5H)-yl)-6-methyl-N-(1H-pyrazol-3-yl)quinolin-4-amine], a half-maximal effect (EC50) was put at 5.69 µM.

The record behind these values is patent US8871756B2 (Hoffmann-La Roche Inc., priority 2011, dated 2014).
